Data published in ChEMBL document CHEMBL3351303, “Discovery of Imigliptin, a Novel Selective DPP-4 Inhibitor for the Treatment of Type 2 Diabetes” (ACS Med Chem Lett, 2014).

Legend:
[1] = Half life in rat at 10 mg/kg, po; assay type: ADME, organism-based; set-up: dose 10 mg/kg, route oral; details: in vivo
[2] = molecular target: Dipeptidyl peptidase 9 (Homo sapiens, UniProt Q86TI2); assay: Inhibition of human recombinant DPP9 pre-incubated with compound for 15 mins before substrate addition by luminescence assay
[3] = Clearance in rat at 5 mg/kg, iv; assay type: ADME, organism-based; set-up: dose 5 mg/kg, route intravenous; details: in vivo
[4] = Half life in rat at 5 mg/kg, iv; assay type: ADME, organism-based; set-up: dose 5 mg/kg, route intravenous; details: in vivo
[5] = AUClast in rat at 10 mg/kg, po; assay type: ADME, organism-based; set-up: time 0 - last, dose 10 mg/kg, route oral; details: plasma
[6] = Cmax in rat at 10 mg/kg, po; assay type: ADME, organism-based; set-up: dose 10 mg/kg, route oral; details: in vivo
[7] = Volume of distribution at steady state in rat at 5 mg/kg, iv; assay type: ADME, organism-based; set-up: dose 5 mg/kg, route intravenous; details: in vivo, read-out: Vdss
[8] = Oral bioavailability in rat at 10 mg/kg; assay type: ADME, organism-based; details: in vivo
[9] = molecular target: Dipeptidyl peptidase 8 (Homo sapiens, UniProt Q6V1X1); assay: Inhibition of human recombinant DPP8 pre-incubated with compound for 15 mins before substrate addition by luminescence assay
Dipeptidyl peptidase 8, sequence (Q6V1X1 whole entry): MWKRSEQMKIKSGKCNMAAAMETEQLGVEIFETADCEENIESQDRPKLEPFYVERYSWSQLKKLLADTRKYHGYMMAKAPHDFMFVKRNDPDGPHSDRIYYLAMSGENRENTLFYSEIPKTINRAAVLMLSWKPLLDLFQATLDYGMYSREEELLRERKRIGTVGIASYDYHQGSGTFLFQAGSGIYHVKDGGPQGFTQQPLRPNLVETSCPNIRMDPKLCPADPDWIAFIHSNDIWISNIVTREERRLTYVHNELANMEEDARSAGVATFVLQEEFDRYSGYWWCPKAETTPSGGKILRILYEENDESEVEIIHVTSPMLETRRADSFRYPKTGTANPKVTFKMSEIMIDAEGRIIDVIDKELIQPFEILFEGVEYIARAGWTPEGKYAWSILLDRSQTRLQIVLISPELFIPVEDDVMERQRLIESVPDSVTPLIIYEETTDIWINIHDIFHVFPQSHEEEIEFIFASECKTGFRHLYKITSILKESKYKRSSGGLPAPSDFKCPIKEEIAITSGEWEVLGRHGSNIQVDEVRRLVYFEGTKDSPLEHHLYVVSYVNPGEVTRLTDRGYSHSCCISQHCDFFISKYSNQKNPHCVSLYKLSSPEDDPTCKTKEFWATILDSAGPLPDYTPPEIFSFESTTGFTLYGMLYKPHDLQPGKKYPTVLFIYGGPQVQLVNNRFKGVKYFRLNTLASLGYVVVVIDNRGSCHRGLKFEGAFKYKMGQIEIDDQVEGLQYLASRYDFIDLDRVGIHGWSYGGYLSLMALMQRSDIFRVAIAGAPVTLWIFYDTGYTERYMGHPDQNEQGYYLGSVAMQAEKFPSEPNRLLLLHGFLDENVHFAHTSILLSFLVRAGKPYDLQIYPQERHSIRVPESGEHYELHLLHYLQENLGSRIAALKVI

Dipeptidyl peptidase 9, sequence (Q86TI2 whole entry): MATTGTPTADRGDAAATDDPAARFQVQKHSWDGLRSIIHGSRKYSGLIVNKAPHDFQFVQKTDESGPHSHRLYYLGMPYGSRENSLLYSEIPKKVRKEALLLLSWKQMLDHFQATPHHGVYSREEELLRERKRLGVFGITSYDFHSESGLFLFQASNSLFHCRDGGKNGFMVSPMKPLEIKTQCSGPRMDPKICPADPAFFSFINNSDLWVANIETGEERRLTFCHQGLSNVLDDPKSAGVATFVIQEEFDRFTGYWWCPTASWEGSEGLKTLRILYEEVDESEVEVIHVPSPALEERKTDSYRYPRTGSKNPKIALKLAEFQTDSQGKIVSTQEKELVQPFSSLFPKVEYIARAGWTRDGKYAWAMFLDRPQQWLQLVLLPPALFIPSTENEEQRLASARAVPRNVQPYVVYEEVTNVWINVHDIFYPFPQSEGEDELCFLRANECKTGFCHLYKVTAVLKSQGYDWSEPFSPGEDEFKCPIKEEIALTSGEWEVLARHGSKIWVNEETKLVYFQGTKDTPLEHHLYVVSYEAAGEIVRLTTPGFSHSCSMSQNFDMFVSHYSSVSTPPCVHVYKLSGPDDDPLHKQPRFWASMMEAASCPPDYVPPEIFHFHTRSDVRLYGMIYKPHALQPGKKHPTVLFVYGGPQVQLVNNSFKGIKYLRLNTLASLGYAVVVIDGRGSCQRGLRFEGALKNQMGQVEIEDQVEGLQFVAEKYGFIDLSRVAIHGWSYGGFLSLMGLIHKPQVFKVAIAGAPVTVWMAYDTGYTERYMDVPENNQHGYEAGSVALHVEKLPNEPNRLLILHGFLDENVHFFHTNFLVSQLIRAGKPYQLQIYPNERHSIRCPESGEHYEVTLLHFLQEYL

| Structure (SMILES) | half-life [1] | IC50 [2] | clearance [3] | half-life [4] | AUC(0-t) [5] | Cmax [6] | Vd [7] | bioavailability [8] | IC50 [9] |
| --- | --- | --- | --- | --- | --- | --- | --- | --- | --- |
| Cn1c(=O)n(Cc2ccccc2C#N)c2c(N3CCC[C@@H](N)C3)cc(C(N)=O)nc21 | 3.7 h | > 100 µM | 73.2 mL/min/kg | 0.8 h | 209 ng·h/mL | 103 ng/mL | 4.22 L/kg | 9% | > 100 µM |
| Cn1c(=O)n(Cc2ccc3ccccc3c2C#N)c2c(N3CCC[C@@H](N)C3)ccnc21 | – | > 100 µM | – | – | – | – | – | – | > 100 µM |
| CC1(C)C(=O)N(Cc2ccccc2C#N)c2c(N3CCC[C@@H](N)C3)ccnc21 | – | > 100 µM | – | – | – | – | – | – | > 100 µM |
| Cn1c(=S)n(Cc2ccccc2C#N)c2c(N3CCC[C@@H](N)C3)ccnc21 | – | > 100 µM | – | – | – | – | – | – | > 100 µM |
| Cn1c(=O)n(Cc2ccccc2C#N)c2c(N3CC[C@@H](N)C3)ccnc21 | 1.6 h | – | 84 mL/min/kg | 1.1 h | 541 ng·h/mL | 291 ng/mL | 4.55 L/kg | 28% | – |
| Cn1c(=O)n(Cc2ccccc2C#N)c2c(N3CCC[C@@H](N)C3)cc(N3CCCC3)nc21 | – | > 100 µM | – | – | – | – | – | – | > 100 µM |
